Results reported in patent US11420947B2, “(S)-n-hydroxy-2-(2-(4-methoxyphenyl)butanamido)thiazole-5-carboxamide and pharmaceutically acceptable salts thereof” (TRANSLATIONAL DRUG DEVELOPMENT, LLC, priority 2018, dated 2022).

Legend:
Type in all cases: biochemical
HDAC6 [1] = target: T1, HDAC6 (Homo sapiens, UniProt Q9UBN7); test: Determination of Koff kinetics against HDAC6 protein; details: for residence time: 100 nM HDAC6 pre-incubated with 0.120 μM compound for 3 hr, diluted 200×, Ln(2)/Kobs, read-out: residence time for binding to HDAC6
T1 sequence (Q9UBN7 1-1215): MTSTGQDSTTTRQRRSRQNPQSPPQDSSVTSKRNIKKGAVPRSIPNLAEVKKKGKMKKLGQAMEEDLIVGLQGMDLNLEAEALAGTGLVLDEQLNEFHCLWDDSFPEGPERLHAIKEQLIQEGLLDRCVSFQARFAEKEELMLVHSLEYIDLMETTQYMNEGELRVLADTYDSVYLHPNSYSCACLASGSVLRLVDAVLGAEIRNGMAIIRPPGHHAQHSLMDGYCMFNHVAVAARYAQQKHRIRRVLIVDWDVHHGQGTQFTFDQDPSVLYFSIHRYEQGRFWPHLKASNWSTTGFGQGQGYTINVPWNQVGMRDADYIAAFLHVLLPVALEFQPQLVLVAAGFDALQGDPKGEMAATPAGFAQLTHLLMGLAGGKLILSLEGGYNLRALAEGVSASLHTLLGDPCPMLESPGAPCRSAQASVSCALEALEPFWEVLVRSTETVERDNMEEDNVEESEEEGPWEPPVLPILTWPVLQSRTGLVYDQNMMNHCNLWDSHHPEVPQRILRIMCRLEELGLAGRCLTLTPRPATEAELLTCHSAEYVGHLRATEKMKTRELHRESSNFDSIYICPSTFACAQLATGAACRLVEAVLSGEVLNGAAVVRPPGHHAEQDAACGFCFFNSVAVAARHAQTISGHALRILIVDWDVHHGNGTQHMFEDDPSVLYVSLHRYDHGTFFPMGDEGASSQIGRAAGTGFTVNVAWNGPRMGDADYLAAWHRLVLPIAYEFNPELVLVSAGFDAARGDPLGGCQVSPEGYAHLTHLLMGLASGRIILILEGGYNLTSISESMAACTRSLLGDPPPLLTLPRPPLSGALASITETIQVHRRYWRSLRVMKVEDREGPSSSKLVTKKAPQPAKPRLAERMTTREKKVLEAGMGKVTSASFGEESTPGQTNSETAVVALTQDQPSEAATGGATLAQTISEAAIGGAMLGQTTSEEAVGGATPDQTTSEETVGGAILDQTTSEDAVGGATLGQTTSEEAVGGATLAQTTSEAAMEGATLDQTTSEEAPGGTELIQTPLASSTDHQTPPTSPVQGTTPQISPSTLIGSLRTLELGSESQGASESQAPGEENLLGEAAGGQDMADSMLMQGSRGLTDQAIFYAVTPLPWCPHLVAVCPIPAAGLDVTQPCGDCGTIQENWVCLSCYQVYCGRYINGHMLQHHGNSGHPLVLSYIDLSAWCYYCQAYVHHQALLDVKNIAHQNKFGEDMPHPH
Experimental: The disassociation rate for #1a (FIG. 3) or #1b (FIG. 4) was determined by pre-incubating 100 nM HDAC6 protein with 0.120 μM compound #1a, #1b, or DMSO for 3 hr. After pre-incubation, the compound-enzyme complex was diluted (200×) into an assay buffer with substrate peptide. Progress curves for ˜8 hrs were observed using Labchip3000 instrument. Progress curve after pre-incubation with compound (blue) was fit with following equation: ((A+(Vs*x))+(((Vo−Vs)*(1−exp(((−1)*Kobs)*t)))/Kobs)), to determine observed rate of dissociation. Residence time was determined as Ln(2)/Kobs.

HDAC6 [2] = target: T1, HDAC6; test: Inhibition of HDAC enzymes, 12-point concentration-response; set-up: made in house; details: for IC50: HDAC6
Experimental: (§1) Compounds were tested in a 12-point concentration-response format against 11 HDAC enzymes as outlined in Table 2A. Test compounds were diluted in 100% DMSO using 3-fold dilution steps. The final compound concentration in the assay ranged from 100 μM to 0.565 nM or as requested. Compounds were tested in a single well for each dilution, and the final concentration of DMSO in all assays was kept at 1%. Reference compounds were tested in an identical manner.

HDAC5 = target: T2, HDAC5 (Homo sapiens, UniProt Q9UQL6); test: as above
T2 construct: purchased BPS 50045
T2 sequence (Q9UQL6 whole entry): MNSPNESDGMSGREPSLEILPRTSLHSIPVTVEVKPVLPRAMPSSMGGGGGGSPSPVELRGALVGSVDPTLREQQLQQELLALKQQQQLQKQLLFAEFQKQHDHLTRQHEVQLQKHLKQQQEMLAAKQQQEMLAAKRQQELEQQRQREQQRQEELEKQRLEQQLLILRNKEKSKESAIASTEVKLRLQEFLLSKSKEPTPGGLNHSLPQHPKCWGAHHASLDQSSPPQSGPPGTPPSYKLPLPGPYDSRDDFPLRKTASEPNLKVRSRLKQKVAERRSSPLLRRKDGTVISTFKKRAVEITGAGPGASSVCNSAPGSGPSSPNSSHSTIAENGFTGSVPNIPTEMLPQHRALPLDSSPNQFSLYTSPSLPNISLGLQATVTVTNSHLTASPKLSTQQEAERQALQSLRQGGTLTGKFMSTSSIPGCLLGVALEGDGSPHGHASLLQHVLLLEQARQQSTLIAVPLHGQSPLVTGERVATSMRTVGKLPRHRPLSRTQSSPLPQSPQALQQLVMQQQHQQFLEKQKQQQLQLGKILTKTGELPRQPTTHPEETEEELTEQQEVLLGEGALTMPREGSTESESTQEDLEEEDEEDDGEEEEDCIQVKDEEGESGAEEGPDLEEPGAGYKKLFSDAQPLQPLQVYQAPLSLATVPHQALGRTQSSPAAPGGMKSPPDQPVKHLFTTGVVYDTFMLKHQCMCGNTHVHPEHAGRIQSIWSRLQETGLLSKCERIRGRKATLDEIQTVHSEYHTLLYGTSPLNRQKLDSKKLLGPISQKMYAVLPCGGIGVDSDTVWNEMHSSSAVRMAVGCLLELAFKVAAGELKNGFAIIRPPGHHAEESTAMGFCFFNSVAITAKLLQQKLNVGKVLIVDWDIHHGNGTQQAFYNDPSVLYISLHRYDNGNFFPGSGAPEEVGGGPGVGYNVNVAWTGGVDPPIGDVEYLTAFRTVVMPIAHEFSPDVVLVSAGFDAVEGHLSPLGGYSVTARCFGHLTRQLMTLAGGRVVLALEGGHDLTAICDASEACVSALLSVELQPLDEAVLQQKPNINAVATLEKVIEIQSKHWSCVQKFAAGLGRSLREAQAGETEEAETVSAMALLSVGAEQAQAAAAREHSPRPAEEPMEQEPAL
Experimental: as §1

HDAC10 = target: T3, HDAC10 (Homo sapiens, UniProt Q969S8); test: as above; details: for IC50: HDAC10
T3 construct: made in house
T3 sequence (Q969S8 1-669): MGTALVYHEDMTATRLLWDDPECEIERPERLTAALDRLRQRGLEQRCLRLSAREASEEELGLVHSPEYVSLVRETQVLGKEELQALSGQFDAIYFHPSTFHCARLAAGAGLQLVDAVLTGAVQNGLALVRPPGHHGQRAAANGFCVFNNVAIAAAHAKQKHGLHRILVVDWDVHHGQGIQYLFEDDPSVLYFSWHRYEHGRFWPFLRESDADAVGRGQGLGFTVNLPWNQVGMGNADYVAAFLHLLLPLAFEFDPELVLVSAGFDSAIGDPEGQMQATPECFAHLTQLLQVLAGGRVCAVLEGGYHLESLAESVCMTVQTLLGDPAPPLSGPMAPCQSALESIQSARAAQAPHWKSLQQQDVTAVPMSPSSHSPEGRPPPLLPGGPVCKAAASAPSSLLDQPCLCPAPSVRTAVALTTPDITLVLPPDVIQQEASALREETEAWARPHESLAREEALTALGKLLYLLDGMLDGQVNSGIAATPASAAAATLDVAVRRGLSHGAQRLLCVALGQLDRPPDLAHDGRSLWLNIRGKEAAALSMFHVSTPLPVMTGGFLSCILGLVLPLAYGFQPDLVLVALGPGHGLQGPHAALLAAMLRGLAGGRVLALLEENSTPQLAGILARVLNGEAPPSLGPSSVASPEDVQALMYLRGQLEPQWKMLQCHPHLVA
Experimental: as §1

HDAC4 = target: T4, HDAC4 (Homo sapiens, UniProt P56524); test: as above
T4 construct: made in house
T4 sequence (P56524 whole entry, species assumed): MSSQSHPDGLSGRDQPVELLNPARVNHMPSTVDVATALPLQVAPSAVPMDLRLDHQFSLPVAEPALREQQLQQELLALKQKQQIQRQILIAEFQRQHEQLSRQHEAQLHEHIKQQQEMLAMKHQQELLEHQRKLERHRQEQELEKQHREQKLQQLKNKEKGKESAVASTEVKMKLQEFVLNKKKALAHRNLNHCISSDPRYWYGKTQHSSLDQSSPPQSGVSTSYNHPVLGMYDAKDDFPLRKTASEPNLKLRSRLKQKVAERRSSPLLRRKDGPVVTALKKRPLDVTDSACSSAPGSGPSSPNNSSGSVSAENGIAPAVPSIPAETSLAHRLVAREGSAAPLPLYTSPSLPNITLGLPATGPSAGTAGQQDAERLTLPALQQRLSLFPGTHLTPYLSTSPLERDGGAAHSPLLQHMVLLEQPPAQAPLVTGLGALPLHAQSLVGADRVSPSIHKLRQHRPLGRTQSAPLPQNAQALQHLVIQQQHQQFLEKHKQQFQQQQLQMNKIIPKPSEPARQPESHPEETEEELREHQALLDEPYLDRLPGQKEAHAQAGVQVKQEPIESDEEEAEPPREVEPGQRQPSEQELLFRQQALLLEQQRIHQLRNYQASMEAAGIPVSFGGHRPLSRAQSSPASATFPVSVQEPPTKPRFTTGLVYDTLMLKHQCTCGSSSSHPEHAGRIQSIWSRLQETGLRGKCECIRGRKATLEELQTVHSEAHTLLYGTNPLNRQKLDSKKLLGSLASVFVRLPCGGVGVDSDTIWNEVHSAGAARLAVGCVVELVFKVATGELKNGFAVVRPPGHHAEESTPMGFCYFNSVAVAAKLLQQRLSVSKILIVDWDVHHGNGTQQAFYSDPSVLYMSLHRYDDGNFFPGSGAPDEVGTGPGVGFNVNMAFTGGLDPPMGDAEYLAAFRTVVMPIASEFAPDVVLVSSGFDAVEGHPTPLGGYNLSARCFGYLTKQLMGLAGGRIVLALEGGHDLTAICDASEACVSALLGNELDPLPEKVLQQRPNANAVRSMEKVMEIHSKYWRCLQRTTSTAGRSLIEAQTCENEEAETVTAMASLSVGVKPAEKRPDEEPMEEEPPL
Experimental: as §1

HDAC11 = target: T5, HDAC11 (Homo sapiens, UniProt Q96DB2); test: as above
T5 construct: made in house
T5 sequence (Q96DB2 whole entry, species assumed): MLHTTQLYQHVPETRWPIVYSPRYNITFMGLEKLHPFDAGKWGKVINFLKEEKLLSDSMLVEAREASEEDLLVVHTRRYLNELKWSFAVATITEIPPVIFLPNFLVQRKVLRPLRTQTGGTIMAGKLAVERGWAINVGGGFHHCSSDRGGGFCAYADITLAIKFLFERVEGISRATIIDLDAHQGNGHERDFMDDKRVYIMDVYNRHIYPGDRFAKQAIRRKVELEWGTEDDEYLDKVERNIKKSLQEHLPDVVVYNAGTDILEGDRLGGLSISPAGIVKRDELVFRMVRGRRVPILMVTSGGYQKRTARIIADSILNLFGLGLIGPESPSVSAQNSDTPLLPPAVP
Experimental: as §1

HDAC1 = target: T6, HDAC1 (Homo sapiens, UniProt Q13547); test: as above
T6 construct: purchased BPS 50051
T6 sequence (Q13547 whole entry): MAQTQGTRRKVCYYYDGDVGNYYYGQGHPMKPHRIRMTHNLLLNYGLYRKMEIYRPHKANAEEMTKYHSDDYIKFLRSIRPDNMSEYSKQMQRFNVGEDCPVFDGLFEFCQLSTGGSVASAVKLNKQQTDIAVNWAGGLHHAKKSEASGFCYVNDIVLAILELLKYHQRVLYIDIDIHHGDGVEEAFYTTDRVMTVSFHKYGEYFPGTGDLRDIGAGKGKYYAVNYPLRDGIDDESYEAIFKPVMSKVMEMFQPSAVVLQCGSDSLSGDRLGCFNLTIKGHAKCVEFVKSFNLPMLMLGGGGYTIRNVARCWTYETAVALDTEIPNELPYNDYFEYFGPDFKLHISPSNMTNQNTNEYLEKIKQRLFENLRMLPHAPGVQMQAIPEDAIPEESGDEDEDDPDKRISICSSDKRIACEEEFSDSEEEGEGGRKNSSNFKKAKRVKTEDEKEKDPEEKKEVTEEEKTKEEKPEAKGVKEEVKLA
Experimental: as §1

HDAC8 = target: T7, HDAC8 (Homo sapiens, UniProt Q9BY41); test: as above
T7 construct: purchased BPS 50008
T7 sequence (Q9BY41 whole entry): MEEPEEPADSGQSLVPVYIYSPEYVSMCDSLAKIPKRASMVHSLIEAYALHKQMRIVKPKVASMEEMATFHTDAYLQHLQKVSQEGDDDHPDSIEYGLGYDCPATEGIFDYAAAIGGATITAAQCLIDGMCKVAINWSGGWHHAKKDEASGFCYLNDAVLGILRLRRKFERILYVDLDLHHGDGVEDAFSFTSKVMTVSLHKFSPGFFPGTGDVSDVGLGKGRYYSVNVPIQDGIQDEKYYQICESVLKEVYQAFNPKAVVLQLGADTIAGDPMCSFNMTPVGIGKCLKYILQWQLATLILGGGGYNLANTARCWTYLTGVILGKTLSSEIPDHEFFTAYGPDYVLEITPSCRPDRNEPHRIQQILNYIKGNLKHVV
Experimental: as §1

HDAC3 = target: T8, HDAC3 (Homo sapiens, UniProt O15379); test: as above; details: for IC50: HDAC3
T8 construct: purchased BPS 50003
T8 sequence (O15379 whole entry): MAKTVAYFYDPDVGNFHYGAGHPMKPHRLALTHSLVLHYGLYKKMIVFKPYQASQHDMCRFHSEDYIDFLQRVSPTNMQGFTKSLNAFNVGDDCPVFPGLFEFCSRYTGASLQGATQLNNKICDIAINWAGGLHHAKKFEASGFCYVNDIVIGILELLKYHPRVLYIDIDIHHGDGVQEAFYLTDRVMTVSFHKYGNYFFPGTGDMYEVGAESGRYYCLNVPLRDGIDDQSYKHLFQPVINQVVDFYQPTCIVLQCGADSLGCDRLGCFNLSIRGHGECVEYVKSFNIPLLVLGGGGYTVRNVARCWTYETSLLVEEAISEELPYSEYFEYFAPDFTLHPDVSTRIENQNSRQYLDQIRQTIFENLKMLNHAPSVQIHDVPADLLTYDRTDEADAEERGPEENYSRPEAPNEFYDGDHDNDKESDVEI
T8 sequence (Q9Y618 395-489 partner limits assumed): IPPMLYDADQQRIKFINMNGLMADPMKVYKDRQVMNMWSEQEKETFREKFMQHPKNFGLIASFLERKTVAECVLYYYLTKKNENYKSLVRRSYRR
Experimental: as §1

HDAC7 = target: T9, HDAC7 (Homo sapiens, UniProt Q8WUI4); test: as above
T9 construct: made in house
T9 sequence (Q8WUI4 whole entry): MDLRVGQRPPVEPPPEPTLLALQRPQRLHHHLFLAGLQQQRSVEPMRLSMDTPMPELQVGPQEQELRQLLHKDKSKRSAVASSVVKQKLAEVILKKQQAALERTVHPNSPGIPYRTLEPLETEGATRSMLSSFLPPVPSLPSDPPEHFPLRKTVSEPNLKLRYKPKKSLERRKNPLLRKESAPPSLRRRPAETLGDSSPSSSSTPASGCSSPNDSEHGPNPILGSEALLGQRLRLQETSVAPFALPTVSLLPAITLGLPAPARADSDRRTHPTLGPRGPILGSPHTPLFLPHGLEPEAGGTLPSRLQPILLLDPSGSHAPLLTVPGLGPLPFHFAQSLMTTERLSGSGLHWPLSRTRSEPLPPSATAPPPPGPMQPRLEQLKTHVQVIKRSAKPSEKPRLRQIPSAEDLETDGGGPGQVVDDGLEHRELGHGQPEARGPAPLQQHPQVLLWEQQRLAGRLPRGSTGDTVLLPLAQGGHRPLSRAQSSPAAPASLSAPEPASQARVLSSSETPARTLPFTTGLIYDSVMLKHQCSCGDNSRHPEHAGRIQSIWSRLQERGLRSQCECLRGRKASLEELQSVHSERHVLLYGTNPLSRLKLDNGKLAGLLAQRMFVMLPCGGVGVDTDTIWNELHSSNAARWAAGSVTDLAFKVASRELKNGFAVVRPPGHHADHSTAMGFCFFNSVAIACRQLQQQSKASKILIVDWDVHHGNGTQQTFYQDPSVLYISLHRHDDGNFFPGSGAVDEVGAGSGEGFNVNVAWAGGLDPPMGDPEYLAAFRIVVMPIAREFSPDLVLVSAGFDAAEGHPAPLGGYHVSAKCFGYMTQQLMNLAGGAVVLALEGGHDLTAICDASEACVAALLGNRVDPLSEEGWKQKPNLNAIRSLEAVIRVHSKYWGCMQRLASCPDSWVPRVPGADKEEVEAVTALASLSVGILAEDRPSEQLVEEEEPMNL
Experimental: as §1

CC[C@@H](C(=O)Nc1ncc(C(=O)NO)s1)c1ccc(OC)cc1 [#1b, (R)—N-hydroxy-2-(2-(4-methoxyphenyl)butanamido)thiazole-5-carboxamide]
residence time (HDAC6 [1]): 35 min
IC50 (HDAC6 [2]): 1.1 nM
IC50 (HDAC5; HDAC5): 100 nM
IC50 (HDAC10): 14.6 nM
IC50 (HDAC4; HDAC4): 160 nM
IC50 (HDAC11; HDAC11): 4220 nM
IC50 (HDAC1; HDAC1): 7.8 nM
IC50 (HDAC8; HDAC8): 416 nM
IC50 (HDAC3): 2.6 nM
IC50 (HDAC7; HDAC7): 118 nM

CC[C@H](C(=O)Nc1ncc(C(=O)NO)s1)c1ccc(OC)cc1 [#1a, (S)—N-hydroxy-2-(2-(4-methoxyphenyl)butanamido)thiazole-5-carboxamide]
residence time (HDAC6 [1]): 1920 min
binding to HDAC6 (in words) (HDAC6 [1]; HDAC6): very tightly bound inhibitor of HDAC6
increase in residence time compared to #1b (HDAC6 [1]; HDAC6): 55 fold
IC50 (HDAC6 [2]): 0.71 nM
Fold (1b/1a) (HDAC6 [2]; ratio of IC50, HDAC6): 1.5
Fold (1b/1a) (HDAC5; ratio of IC50, HDAC5): 1.4
IC50 (HDAC10): 2 nM
Fold (1b/1a) (HDAC10; ratio of IC50, HDAC10): 7.3
Fold (1b/1a) (HDAC4; ratio of IC50, HDAC4): 1.2
Fold (1b/1a) (HDAC11; ratio of IC50, HDAC11): 0.73
Fold (1b/1a) (HDAC1; ratio of IC50, HDAC1): 7.8
Fold (1b/1a) (HDAC8; ratio of IC50, HDAC8): 3.1
IC50 (HDAC3): < 0.56 nM
Fold (1b/1a) (HDAC3; ratio of IC50, HDAC3): 4.6
Fold (1b/1a) (HDAC7; ratio of IC50, HDAC7): 3.4
